Test system: 817829-284-R-J1-PDC multi-cell spheroid viability
Test: Anticancer human tumor 817829-284-R-J1-PDC patient-derived colon adenocarcinoma cell line growth inhibition [PI3K]
Conditions: for IC50: curve of first compound; for viability, T/C: stronger effect = lower value
Description: Combinatorial screen of targeted agents with the PI3K inhibitors inavolisib, alpelisib, duvelisib, and copanlisib in multi-cell type tumor spheroids
A high-throughput screen of multi-cell type tumor spheroids was designed to identify active combinations of targeted small molecules and PI3K pathway inhibitors. Complex spheroids include a stromal component modeled by human endothelial cells (HUVEC) and fibroblasts modeled by human mesenchymal stem cells (MSCs). The concentration ranges selected for each drug and investigational agent were based upon clinically achievable concentrations if the clinical Cmax of the agent was known.
Compounds. The drugs and investigational agents: inavolisib (NSC800729), alpelisib (NSC765974), duvelisib (NSC772469), copanlisib (NSC816437), ipatasertib (NSC767898), afuresertib (NSC778305), talazoparib (NSC767125), sapanisertib (NSC764658), selumetinib (NSC741078), tovorafenib (DAY101, NSC766906), vemurafenib (NSC761431), ravoxertinib (NSC781343), sotorasib (NSC818433), MRTX1133 (NSC 836407), abemaciclib (NSC 768073), palbociclib (NSC758247), venetoclax (NSC 766270), SY5609 (NSC837396), enzalutamide (NSC755605), and darolutamide (NSC825331), were obtained from the National Cancer Institute (NCI) Developmental Therapeutics Program Chemical Repository. The FDA-approved anticancer drug set is available from the NCI Developmental Therapeutics Program. […] The stock solutions were prepared in dimethyl sulfoxide (DMSO, Sigma-Aldrich, St. Louis, MO, cat. D2650) at 800-fold the tested concentration and stored at -70 degrees C prior to their use. All drugs and investigational agents were tested over a range starting from a high concentration at or near the clinical Cmax and decreasing in half-log increments. If the clinical Cmax for an agent had not been determined, the highest concentration tested was 10 microM.
Cell Culture. All cells were maintained in an incubator at 37 degrees C and 5% CO2 with 95% humidity. The PDC lines were cultured according to standard operating procedures established by the NCI PDMR (https://pdmr.cancer.gov/sops/default.htm). All PDCs were thawed and cultured in Matrigel-coated flasks prepared with a working solution of 1X Ham's F-12 nutrient mix, without supplementation (Invitrogen, Waltham, MA, cat. 11765054), 100 U/mL penicillin-streptomycin (Invitrogen, cat. 15140122), and 2.5% Matrigel (Corning Inc., Corning, NY, cat. 354248) for the first three passages. The 354836-022-R-J1-PDC, 475296-252-R-J1-PDC, and 997726-040-R-J2-PDC lines were cultured in 6A media, which includes advanced DMEM/F-12 (Thermo Fisher Scientific, cat. 12634028), 10 mM HEPES (Thermo Fisher Scientific, cat. 15630080), 1X GlutaMAX supplement (Thermo Fisher Scientific, cat. 35050061), 0.1 mg/mL primocin (InvivoGen, San Diego, CA, cat. ant-pm-2), 10% defined fetal bovine serum, heat inactivated (HyClone Laboratories Inc., Logan, UT, cat. SH30070.03HI), 50% L-WRN conditioned media (ATCC, cat. CRL-3276), 1.25 mM N-Acetyl-L-cysteine (Sigma-Aldrich, cat. A9165), 10 mM nicotinamide (Sigma-Aldrich, cat. N0636), 1X B-27 supplement (Thermo Fisher Scientific, cat. 17504044), 1X N-2 supplement (Thermo Fisher Scientific, cat. 17502048), and 10 microM Y-27632 dihydrochloride (Tocris Bioscience, Bristol, United Kingdom, cat. 1254). The 624824-186-R-J2-PDC line was cultured in 6C/Colon 1B media, which includes all 6A media components plus 50 ng/mL human EGF recombinant protein (Thermo Fisher Scientific, cat. PHG0311). […]

[1] = second compound 0.00316 µM, first compound 0.0316 µM
[2] = second compound 0.00316 µM, first compound 0.1 µM
[3] = second compound 0.01 µM, first compound 0.0316 µM
[4] = second compound 0.01 µM, first compound 0.1 µM
[5] = second compound 0.0316 µM, first compound 0.0316 µM
[6] = second compound 0.0316 µM, first compound 0.1 µM
[7] = second compound 0.1 µM, first compound 0.0316 µM
[8] = second compound 0.1 µM, first compound 0.1 µM
[9] = second compound 0.316 µM, first compound 0.0316 µM
[10] = second compound 0.316 µM, first compound 0.1 µM
[11] = second compound 1 µM, first compound 0.0316 µM
[12] = second compound 1 µM, first compound 0.1 µM
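Also: spheroids exposed to agents for seven days before readout.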
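For viability, T/C in this document: percent of vehicle DMSO control viability which is 100%.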

CC(=O)c1c(C)c2cnc(Nc3ccc(N4CCNCC4)cn3)nc2n(C2CCCC2)c1=O + CC(Nc1ccc2c(c1)OCCn1cc(N3C(=O)OCC3C(F)F)nc1-2)C(N)=O
IC50 (second compound 0.00316 µM): 69.7 nM
IC50 (second compound 0.01 µM): 76.1 nM
IC50 (second compound 0.0316 µM): 33.9 nM
IC50 (second compound 0.1 µM): 28.7 nM
IC50 (second compound 0.316 µM): 13.7 nM
IC50 (second compound 1 µM): 8.65 nM
viability, T/C (second compound 0.00316 µM, first compound 0.000316 µM): 79.4%
viability, T/C (second compound 0.00316 µM, first compound 0.001 µM): 78.4%
viability, T/C (second compound 0.00316 µM, first compound 0.00316 µM): 74.4%
viability, T/C (second compound 0.00316 µM, first compound 0.01 µM): 73.2%
viability, T/C [1]: 142%
viability, T/C [2]: 31.9%
viability, T/C (second compound 0.01 µM, first compound 0.000316 µM): 124%
viability, T/C (second compound 0.01 µM, first compound 0.001 µM): 74.5%
viability, T/C (second compound 0.01 µM, first compound 0.00316 µM): 107%
viability, T/C (second compound 0.01 µM, first compound 0.01 µM): 56.3%
viability, T/C [3]: 58.8%
viability, T/C [4]: 48.4%
viability, T/C (second compound 0.0316 µM, first compound 0.000316 µM): 73.5%
viability, T/C (second compound 0.0316 µM, first compound 0.001 µM): 80%
viability, T/C (second compound 0.0316 µM, first compound 0.00316 µM): 84.3%
viability, T/C (second compound 0.0316 µM, first compound 0.01 µM): 62.5%
viability, T/C [5]: 53.4%
viability, T/C [6]: 31.4%
viability, T/C (second compound 0.1 µM, first compound 0.000316 µM): 85.1%
viability, T/C (second compound 0.1 µM, first compound 0.001 µM): 86%
viability, T/C (second compound 0.1 µM, first compound 0.00316 µM): 60.1%
viability, T/C (second compound 0.1 µM, first compound 0.01 µM): 105%
viability, T/C [7]: 46.8%
viability, T/C [8]: 37%
viability, T/C (second compound 0.316 µM, first compound 0.000316 µM): 51.7%
viability, T/C (second compound 0.316 µM, first compound 0.001 µM): 52.2%
viability, T/C (second compound 0.316 µM, first compound 0.00316 µM): 69.7%
viability, T/C (second compound 0.316 µM, first compound 0.01 µM): 52.4%
viability, T/C [9]: 38.3%
viability, T/C [10]: 23.3%
viability, T/C (second compound 1 µM, first compound 0.000316 µM): 68.8%
viability, T/C (second compound 1 µM, first compound 0.001 µM): 68.7%
viability, T/C (second compound 1 µM, first compound 0.00316 µM): 53.5%
viability, T/C (second compound 1 µM, first compound 0.01 µM): 55.6%
viability, T/C [11]: 29.7%
viability, T/C [12]: 27.2%

CNC(=O)c1ccc(N2C(=S)N(c3ccc(C#N)c(C(F)(F)F)c3)C(=O)C2(C)C)cc1F + CC(Nc1ccc2c(c1)OCCn1cc(N3C(=O)OCC3C(F)F)nc1-2)C(N)=O
IC50 (second compound 0.00316 µM): > 10000 nM
IC50 (second compound 0.01 µM): > 10000 nM
IC50 (second compound 0.0316 µM): > 10000 nM
IC50 (second compound 0.1 µM): 4180 nM
IC50 (second compound 0.316 µM): 3370 nM
IC50 (second compound 1 µM): < 31.6 nM
viability, T/C [1]: 57.7%
viability, T/C [2]: 88.8%
viability, T/C (second compound 0.00316 µM, first compound 0.316 µM): 109%
viability, T/C (second compound 0.00316 µM, first compound 1 µM): 75.6%
viability, T/C (second compound 0.00316 µM, first compound 3.16 µM): 61.9%
viability, T/C (second compound 0.00316 µM, first compound 10 µM): 50.9%
viability, T/C [3]: 86.1%
viability, T/C [4]: 77.6%
viability, T/C (second compound 0.01 µM, first compound 0.316 µM): 89.1%
viability, T/C (second compound 0.01 µM, first compound 1 µM): 70.7%
viability, T/C (second compound 0.01 µM, first compound 3.16 µM): 60.5%
viability, T/C (second compound 0.01 µM, first compound 10 µM): 71.4%
viability, T/C [5]: 70.1%
viability, T/C [6]: 79.2%
viability, T/C (second compound 0.0316 µM, first compound 0.316 µM): 87.5%
viability, T/C (second compound 0.0316 µM, first compound 1 µM): 56.7%
viability, T/C (second compound 0.0316 µM, first compound 3.16 µM): 67.1%
viability, T/C (second compound 0.0316 µM, first compound 10 µM): 54.6%
viability, T/C [7]: 56.5%
viability, T/C [8]: 53.4%
viability, T/C (second compound 0.1 µM, first compound 0.316 µM): 65.9%
viability, T/C (second compound 0.1 µM, first compound 1 µM): 48.9%
viability, T/C (second compound 0.1 µM, first compound 3.16 µM): 61.6%
viability, T/C (second compound 0.1 µM, first compound 10 µM): 27.3%
viability, T/C [9]: 46.8%
viability, T/C [10]: 61.8%
viability, T/C (second compound 0.316 µM, first compound 0.316 µM): 58%
viability, T/C (second compound 0.316 µM, first compound 1 µM): 53.5%
viability, T/C (second compound 0.316 µM, first compound 3.16 µM): 51%
viability, T/C (second compound 0.316 µM, first compound 10 µM): 32.8%
viability, T/C [11]: 32.4%
viability, T/C [12]: 40.7%
viability, T/C (second compound 1 µM, first compound 0.316 µM): 44.9%
viability, T/C (second compound 1 µM, first compound 1 µM): 45.9%
viability, T/C (second compound 1 µM, first compound 3.16 µM): 41.4%
viability, T/C (second compound 1 µM, first compound 10 µM): 20.6%
